Assay [1] relates to S. pneumoniae ATCC 49619. Briefly: NCCLS broth microdilution MIC, S. pneumoniae ATCC 49619. In kind it is cell-based, Streptococcus pneumoniae. Particulars: organism H = S. pneumoniae ATCC 49619. An excerpt: (§1) Compounds according to this invention were screened for their in vitro activities against selected species of bacteria and fungi. […]
In general terms: Broth dilution looks for growth in wells or tubes with falling amounts of substance.

The test system of assay [2] is S. aureus ATCC 13709. In words: NCCLS broth microdilution MIC, S. aureus (MSSA). In kind it is cell-based, Staphylococcus aureus. As to conditions: organism E = S. aureus ATCC 13709 (MSSA).
Source text: as §1

Assay [3] concerns S. epidermidis ATCC 12228. Briefly: NCCLS broth microdilution MIC, S. epidermidis. In kind it is cell-based, Staphylococcus epidermidis. Particulars: organism G = S. epidermidis ATCC 12228.
Source text: as §1

Assay [4] relates to E. faecium ATCC 51559. Briefly: NCCLS broth microdilution MIC, E. faecium (VRE). As to conditions: organism D = E. faecium ATCC 51559 (VRE). The class given is cell-based, Enterococcus faecium.
Source text: as §1

Assay [5] has as its system S. aureus ATCC 27660. In words: NCCLS broth microdilution MIC, S. aureus (MRSA). The class given is cell-based, Staphylococcus aureus. Particulars: organism F = S. aureus ATCC 27660 (MRSA).
Source text: as §1

Assay [6] concerns the target target sequence AGTACT, 310 base pair dsDNA restriction fragment of Plasmid A. Briefly: Quantitative DNase I footprint titration, AGTACT. The class given is binding. Particulars: 310 bp/A, pH 7.0, 22° C., read-out: Dissociation Constant Kd.
Assay [7] concerns the target target sequence AATTAATCAT, 352 base pair dsDNA restriction fragment of Plasmid B. In words: Quantitative DNase I footprint titration, […]. The class given is binding. Particulars: 352 bp/B, pH 7.0, 22° C., read-out: Dissociation Constant Kd.
For assay [8], the system named is E. faecalis ATCC 29212. Briefly: NCCLS broth microdilution MIC, E. faecalis. In kind it is cell-based. Particulars: organism C = E. faecalis ATCC 29212.
Source text: as §1

The subject of assay [9] is C. albicans ATCC 38247. Briefly: Antifungal MIC, C. albicans. In kind it is cell-based, Candida albicans. As to conditions: organism B = C. albicans ATCC 38247.
Source text: as §1

Assay [10] relates to S. pneumoniae ATCC 51422. In words: NCCLS broth microdilution MIC, S. pneumoniae (PRSP). In kind it is cell-based, Streptococcus pneumoniae. Particulars: organism I = S. pneumoniae ATCC 51422 (PRSP).
Source text: as §1

Assay [11] has as its system B. cereus ATCC 11778. Briefly: NCCLS broth microdilution MIC, B. cereus. The class given is cell-based, Bacillus cereus. Particulars: organism A = B. cereus ATCC 11778.
Source text: as §1

For assay [12], the target named is target sequence ACAATTAAT, 352 bp fragment of Plasmid B. Briefly: Quantitative DNase I footprint titration, […]. In kind it is binding. As to conditions: 352 bp/B, pH 7.0, 22° C., read-out: Dissociation Constant Kd.
The mark [13] stands for this setting: Staphylococcus aureus, read-out: Minimum Inhibitory Concentration (MIC).

Values after ≈ are worked out from the molar mass of the structure shown.

As a reminder, the Kd is the concentration at which binding is half-saturated. Turning to `Cn1cc(NC(=O)c2cc3ccccc3cn2)cc1C(=O)Nc1cc(C(=O)Nc2cc(C(=O)NCCN3CCOCC3)n(CCN3CCOCC3)c2)n(C)c1` [Ib-56], the MIC in [1] (Streptococcus pneumoniae, ATCC49619, read-out: Minimum Inhibitory Concentration (MIC)) was less than 4 µg/mL; in assay [2] (setting [13]), less than 4 µg/mL; in assay [3] (Staphylococcus epidermidis, ATCC12228, read-out: Minimum Inhibitory Concentration (MIC)) it was less than 4 µg/mL; in assay [4] (Enterococcus faecium, read-out: Minimum Inhibitory Concentration (MIC)), 4 to 12 µg/mL (≈ 5.33 to 16 µM); in assay [5] (setting [13]), less than 4 µg/mL; in [8] (Enterococcus faecalis, ATCC29212, read-out: Minimum Inhibitory Concentration (MIC)), less than 4 µg/mL. Besides, the MIC was more than 32 µg/mL in [9] (Candida albicans, ATCC38247, read-out: Minimum Inhibitory Concentration (MIC)); less than 4 µg/mL in assay [10] (Streptococcus pneumoniae, read-out: Minimum Inhibitory Concentration (MIC)); less than 4 µg/mL in [11] (Bacillus cereus, ATCC11778, read-out: Minimum Inhibitory Concentration (MIC)). For the same compound, the Kd in [6] is less than 100 nM; in assay [7], 5 nM.
Consider `Cn1cc(NC(=O)c2cc3ccccc3cn2)cc1C(=O)Nc1cc(C(=O)Nc2cc(C(=O)NCCN3CCCCC3)ns2)n(C)c1` [Ib-59], for which the “Minimum Inhibitory Concentration (MIC)” value in [1], in assay [2], in assay [3], in [4], in [5] and in assay [8] was “+++ (+++ = MIC ≦ 4)” each time. In addition, the “Minimum Inhibitory Concentration (MIC)” value in assay [9] was more than 32 µg/mL; in assay [10] it was “+++ (+++ = MIC ≦ 4)”; in [11], “+++ (+++ = MIC ≦ 4)”. Besides, the Kd in assay [12] came out at 1 nM; in [6], 50 nM.

These data come from US6777425B2, “Isoquinoline compounds having antiinfective activity” (Genesoft Pharmaceuticals, Inc., priority 2001, dated 2004).
